In US20100204182A1, “ECTONUCLEOTIDASE INHIBITORS” (RHEINISCHE FRIEDRICH-WILHELMS-UNIVERSITAT BONN, priority 2006, published 2010):
Read-outs that look alike come from different tables or passages of the source.

Assays:
human NTPDase1 = target: T1, human NTPDase1 (Homo sapiens, UniProt P49961); assay: NTPDase inhibition assay by capillary electrophoresis (CE), NTPDase1; assay type: biochemical; conditions: ATP 320 μM; for Ki: CE method, Km 17 μM, read-out: NTPDase1 Ki [μM] ± SEM; for inhibition at 1000 µM: 1 mM compound
T1 sequence (P49961 1-510): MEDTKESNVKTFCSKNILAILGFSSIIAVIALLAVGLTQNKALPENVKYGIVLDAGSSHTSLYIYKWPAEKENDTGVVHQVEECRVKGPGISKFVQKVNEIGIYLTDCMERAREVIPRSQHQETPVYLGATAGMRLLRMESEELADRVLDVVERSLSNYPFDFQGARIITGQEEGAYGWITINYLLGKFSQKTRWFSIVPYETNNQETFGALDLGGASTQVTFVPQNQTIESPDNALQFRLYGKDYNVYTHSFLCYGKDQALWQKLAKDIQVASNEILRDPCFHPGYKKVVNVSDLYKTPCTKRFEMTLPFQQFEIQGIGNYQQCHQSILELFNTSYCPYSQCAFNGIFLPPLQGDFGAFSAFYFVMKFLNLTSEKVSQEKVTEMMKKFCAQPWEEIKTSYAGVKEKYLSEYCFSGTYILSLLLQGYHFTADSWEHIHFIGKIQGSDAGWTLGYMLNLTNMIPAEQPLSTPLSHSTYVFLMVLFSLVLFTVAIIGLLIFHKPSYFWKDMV
Procedure: (§1) The applied enzyme inhibition assay has been described (Iqbal J, Vollmayer P, Braun N, Zimmermann H, Müller C E. A capillary electrophoresis method for the characterization of ecto-nucleoside triphosphate diphosphohydrolases (NTPDases) and the analysis of inhibitors by in-capillary enzymatic microreaction. Purinergic Signalling 2005, 1, 349-358).
(§2) A. CE instrumentation: All experiments were carried out using a P/ACE MDQ capillary electrophoresis system (Beckman Instruments, Fullerton, Calif., USA) equipped with a UV detection system coupled with a diode-array detector (DAD). Data collection and peak area analysis were performed by the P/ACE MDQ software 32 KARAT obtained from Beckman Coulter. The capillary temperature was kept constant at 25° C. The temperature of the sample storing unit was also adjusted to 25° C. The electrophoretic separations were carried out using an eCAP polyacrylamide-coated fused-silica capillary [(30 cm (20 cm effective length)×50 μm internal diameter (I.D.)×360 μm outside diameter (O.D.), obtained from CS-Chromatographie (Langerwehe, Germany)]. The separation was performed using an applied current of −60 μA and a data acquisition rate of 8 Hz. Analytes were detected using direct UV absorbance at 210 nm. The capillary was conditioned by rinsing with water for 2 min and subsequently with buffer (phosphate 50 mM, pH 6.5) for 1 min. Sample injections were made at the cathodic side of the capillary.
(§3) B. NTPDase inhibition assay by capillary electrophoresis: Enzyme inhibition assays were carried out at 37° C. in a final volume of 100 μl. The reaction mixture contained 320 μM of ATP (substrate) in reaction buffer. The reaction buffer contained 140 mM NaCl, 5 mM KCl, 1 mM MgCl2, 2 mM CaCl2, and 10 mM Hepes, pH 7.4.
(§4) Different concentrations of inhibitors dissolved in DMSO or water (10 μl) were added and the reaction was initiated by the addition of 10 μl of the appropriately diluted recombinant or native human or rat NTPDase enzyme. […] The mixture (final volume 100 μl) was incubated for 15 min and terminated by heating at 99° C. for 4 min. Aliquots of the reaction mixture (50 μl) were then transferred to mini-CE vials and injected into the CE instrument under the conditions described above. 20 μM of UMP was used as internal standard. Inhibition of NTPDase was tested over a range of 6 to 8 concentrations of test compound spanning 3 orders of magnitude to determine K1 values. Each analysis was repeated two times (in triplicates) in two separate experiments. The Cheng-Prusoff equation was used to calculate the K1 values from the IC50 values, determined by the non-linear curve fitting program PRISM® 3.0 (GraphPad, San Diego, Calif., USA). In table 1K, values of selected compounds as inhibitors of human NTPDases are given.

human NTPDase2 = target: T2, human NTPDase2 (Homo sapiens, UniProt Q9Y5L3); assay: NTPDase inhibition assay by capillary electrophoresis (CE), NTPDase2; assay type: biochemical; conditions: for inhibition at 1000 µM: read-out: NTPDase2 inhibition (%) at 1 mM
T2 sequence (Q9Y5L3 1-495): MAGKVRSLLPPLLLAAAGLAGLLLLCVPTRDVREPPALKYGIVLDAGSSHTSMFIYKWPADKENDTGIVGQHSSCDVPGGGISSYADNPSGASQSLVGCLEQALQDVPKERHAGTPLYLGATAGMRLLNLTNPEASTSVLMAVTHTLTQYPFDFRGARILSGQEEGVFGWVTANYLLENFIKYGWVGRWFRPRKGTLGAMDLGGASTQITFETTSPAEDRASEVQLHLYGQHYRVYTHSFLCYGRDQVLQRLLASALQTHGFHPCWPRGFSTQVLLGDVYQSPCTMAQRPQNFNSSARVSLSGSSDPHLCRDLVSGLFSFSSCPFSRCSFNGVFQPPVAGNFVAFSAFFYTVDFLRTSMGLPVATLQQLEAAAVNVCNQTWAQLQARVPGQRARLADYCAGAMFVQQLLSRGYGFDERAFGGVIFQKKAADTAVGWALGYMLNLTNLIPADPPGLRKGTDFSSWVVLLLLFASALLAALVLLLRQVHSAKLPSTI

human NTPDase3 = target: T3, human NTPDase3 (Homo sapiens, UniProt O75355); assay: NTPDase inhibition assay by capillary electrophoresis (CE), NTPDase3; assay type: biochemical; conditions: ATP 320 μM; for inhibition at 1000 µM: 1 mM compound; for Ki: CE method, Km 75 μM, read-out: NTPDase3 Ki [μM] ± SEM
T3 sequence (O75355 1-529): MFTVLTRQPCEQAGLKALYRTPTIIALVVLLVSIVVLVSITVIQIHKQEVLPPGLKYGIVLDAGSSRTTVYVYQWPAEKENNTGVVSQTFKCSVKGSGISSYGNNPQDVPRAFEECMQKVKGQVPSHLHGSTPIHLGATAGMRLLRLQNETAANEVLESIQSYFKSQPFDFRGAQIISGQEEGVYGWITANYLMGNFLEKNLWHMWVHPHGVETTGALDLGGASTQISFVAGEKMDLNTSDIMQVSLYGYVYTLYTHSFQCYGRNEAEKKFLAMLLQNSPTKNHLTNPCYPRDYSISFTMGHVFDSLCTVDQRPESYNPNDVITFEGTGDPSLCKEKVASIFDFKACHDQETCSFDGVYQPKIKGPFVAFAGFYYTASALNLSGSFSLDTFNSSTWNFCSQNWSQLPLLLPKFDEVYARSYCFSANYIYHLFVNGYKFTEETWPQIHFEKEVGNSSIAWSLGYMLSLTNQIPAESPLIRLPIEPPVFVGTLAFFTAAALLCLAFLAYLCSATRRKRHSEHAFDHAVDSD
Procedure: as §1, §2, §3, §4

human NTPDase8 = target: T4, human NTPDase8 (Homo sapiens, UniProt Q5MY95); assay: NTPDase inhibition assay by capillary electrophoresis (CE), NTPDase8; assay type: biochemical; conditions: for Ki: read-out: NTPDase8 Ki [μM] ± SEM; for inhibition at 1000 µM: human NTPDase8, 1 mM compound, ATP 320 μM
T4 sequence (Q5MY95 1-495): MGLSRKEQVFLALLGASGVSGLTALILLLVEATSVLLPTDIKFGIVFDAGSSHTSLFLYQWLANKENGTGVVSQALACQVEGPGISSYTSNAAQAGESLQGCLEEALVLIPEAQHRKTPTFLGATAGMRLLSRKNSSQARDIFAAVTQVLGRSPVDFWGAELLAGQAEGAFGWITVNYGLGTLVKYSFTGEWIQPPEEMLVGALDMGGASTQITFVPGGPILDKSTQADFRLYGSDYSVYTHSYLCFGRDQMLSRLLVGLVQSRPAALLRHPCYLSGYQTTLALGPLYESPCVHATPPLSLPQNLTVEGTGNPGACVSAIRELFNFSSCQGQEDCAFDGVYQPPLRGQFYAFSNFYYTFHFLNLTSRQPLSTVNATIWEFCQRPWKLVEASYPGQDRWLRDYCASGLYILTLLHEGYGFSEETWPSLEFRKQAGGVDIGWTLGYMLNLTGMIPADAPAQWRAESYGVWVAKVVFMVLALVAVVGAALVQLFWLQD
Procedure: as §1, §2, §3, §4

hP2Y12 = hP2Y12 (Homo sapiens, UniProt Q9H244); assay: Inhibition of [3H]PSB-0413 binding at hP2Y12; conditions: mean ± SEM, read-out: hP2Y12 % Inhibition of [^3H]PSB-0413 Binding at 10 μM, n = 3
Procedure: In table 2 inhibition data of selected examples at human P2Y receptor subtypes were collected. It can be seen that no compound was identified that inhibited P2Y receptors at high concentrations of 100 μM and 10 μM, respectively.

rP2Y6 = rP2Y6 (Rattus norvegicus, UniProt Q63371); assay: Inhibition of UDP binding at rP2Y6; conditions: read-out: rP2Y6 % inhibition of UDP binding at 100 μM, n = 3, mean ± SEM
[1] = human NTPDase2, CE method, ATP 320 μM, Km 70 μM, read-out: NTPDase2 Ki [μM] ± SEM

hP2Y12, sequence (Q9H244 whole entry): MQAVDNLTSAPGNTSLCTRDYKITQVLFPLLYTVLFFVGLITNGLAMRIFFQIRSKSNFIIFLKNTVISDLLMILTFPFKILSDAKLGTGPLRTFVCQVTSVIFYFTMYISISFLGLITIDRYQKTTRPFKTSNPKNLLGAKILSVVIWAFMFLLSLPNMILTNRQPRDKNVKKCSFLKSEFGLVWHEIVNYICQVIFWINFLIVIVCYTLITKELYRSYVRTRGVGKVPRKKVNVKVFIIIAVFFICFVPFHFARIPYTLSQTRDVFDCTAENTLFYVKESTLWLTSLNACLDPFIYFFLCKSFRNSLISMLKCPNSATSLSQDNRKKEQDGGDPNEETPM
rP2Y6, sequence (Q63371 whole entry): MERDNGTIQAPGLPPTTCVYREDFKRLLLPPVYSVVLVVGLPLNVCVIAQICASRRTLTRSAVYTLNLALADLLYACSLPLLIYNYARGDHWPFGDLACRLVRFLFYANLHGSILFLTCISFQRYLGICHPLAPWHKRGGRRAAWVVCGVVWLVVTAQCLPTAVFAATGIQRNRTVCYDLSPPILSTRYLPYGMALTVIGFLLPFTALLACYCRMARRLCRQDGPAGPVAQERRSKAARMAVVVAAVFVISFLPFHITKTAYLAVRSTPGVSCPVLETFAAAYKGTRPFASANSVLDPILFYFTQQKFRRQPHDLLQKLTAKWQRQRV

NTPDase2 inhibition (%) at 1 mM (human NTPDase2; human NTPDase2, 1 mM compound, ATP 320 μM) [%]	SMILES	Ki (human NTPDase1) [µM]	Ki (human NTPDase2; [1]) [µM]	inhibition at 1000 µM (human NTPDase3) [%]	Ki (human NTPDase3) [µM]	Ki (human NTPDase8) [µM]	inhibition at 10 µM (hP2Y12) [%]	inhibition at 1000 µM (human NTPDase8) [%]	inhibition at 1000 µM (human NTPDase1) [%]	Ki (human NTPDase2) [µM]	inhibition at 1000 µM (human NTPDase2) [%]	inhibition at 100 µM (rP2Y6) [%]
–	CCOP(=O)(Cc1ccc(NC(=O)CCNC(=O)[C@H]2O[C@@H](n3cnc4c(N)ncnc43)C(O)C2O)cc1)OCC (stereo in doubt) [CC2, 4-[3-((2S,3R,4S,5R)-5-(6-Amino-9H-purin-9-yl)-3,4-dihydroxy-tetrahydro-furane-2-carboxamido)propaneamido]benzylphosphonic acid diethylester]	154 ± 37	1440 ± 64	0	> 200	255 ± 25.3	1 ± 6	–	–	–	–	–
–	CCOP(=O)(Cc1ccc(NC(=O)CCCNC(=O)[C@H]2O[C@@H](n3cnc4c(N)ncnc43)C(O)C2O)cc1)OCC (stereo in doubt) [CC3, 4-[4-((2S,3R,4S,5R)-5-(6-Amino-9H-purin-9-yl)-3,4-dihydroxy-tetrahydro-furane-2-carboxamido)butaneamido]benzylphosphonic acid diethylester]	161 ± 24	213 ± 34	0	> 200	> 100	5 ± 1	0	–	–	–	–
–	CCOP(=O)(OCC)C(NC(=O)CCCNC(=O)[C@H]1O[C@@H](n2cnc3c(N)ncnc32)C(O)C1O)P(=O)(OCC)OCC (stereo in doubt) [CC5, 4-[(2S,3R,4S,5R)-5-(6-Amino-9H-purin-9-yl)-3,4-dihydroxy-tetrahydrofurane-2-carboxamido]butaneamidomethylenediphosphonic acid tetraethylester]	> 50	–	–	–	–	–	–	0	> 200	0	-5 ± 2
–	CCOP(=O)(Cc1ccc(NC(=O)CNC(=O)[C@H]2O[C@@H](n3cnc4c(N)ncnc43)C(O)C2O)cc1)OCC (stereo in doubt) [CC1, 4-[2-((2S,3R,4S,5R)-5-(6-Amino-9H-purin-9-yl)-3,4-dihydroxy-tetrahydro-furane-2-carboxamido)ethaneamido]benzylphosphonic acid diethylester]	> 50	–	0	> 200	> 100	-4 ± 6	0	0	> 200	0	–
54	CCOP(=O)(CC(=O)OCCNC(=O)CNC(=O)[C@H]1O[C@@H](n2ccc(=O)[nH]c2=O)[C@@H](O)[C@H]1O)OCC [Compound 9, 2-[(2S,3R,4S,5R)-5-(2,4-Dioxo-3,4-dihydropyrimidin-1(2H)-yl)-3,4-dihydroxy-tetrahydro-furane-2-carboxamido]ethaneamido-ethyloxycarbonyl methylenephosphonic acid diethylester]	–	~165	–	–	–	–	–	–	–	–	–
–	CCOP(=O)(Cc1ccc(NC(=O)[C@H]2O[C@@H](n3ccc(=O)[nH]c3=O)C(O)C2O)cc1)OCC (stereo in doubt) [Compound 1, 4-[(2S,3R,4S,5R)-5-(2,4-Dioxo-3,4-dihydropyrimidin-1(2H)-yl)-3,4-dihydroxy-tetrahydrofurane-2-carboxamido]benzylphosphonic acid diethylester]	–	–	–	–	–	–	–	–	117 ± 15	–	-12 ± 3
–	CCOP(=O)(OCC)C(NC(=O)CCNC(=O)[C@H]1O[C@@H](n2cnc3c(N)ncnc32)C(O)C1O)P(=O)(OCC)OCC (stereo in doubt) [CC4, 3-[(2S,3R,4S,5R)-5-(6-Amino-9H-purin-9-yl)-3,4-dihydroxy-tetrahydrofurane-2-carboxamido]propaneamidomethylenediphosphonic acid tetraethylester]	> 50	–	–	–	–	–	–	0	> 200	0	5 ± 8
